Test results reported in patent US10456397B2, “Covalent inhibitors of CDK-7” (Newave Pharmaceutical Inc., priority 2015, dated 2019).
Values joined by “and” are separate entries in the source; they are usually repeats but may differ in a detail not shown here. Equal values may be shown once. Read-outs that look alike come from different tables or passages of the source.

Experiments:
NCI-H209 = experiment: In vitro anti-proliferation assay (ATPlite); assay type: cell-based; settings: SCLC cell line NCI-H209, about 72 hours, read-out: anti-proliferative IC50
Procedure: (§1) Cell antiproliferation is assayed by PerkinElmer ATPlite™ Luminescence Assay System. Briefly, the various test cancer cell lines are plated at a density of about 1×10^4 cells per well in Costar 96-well plates, and are incubated with different concentrations of compounds for about 72 hours in medium supplemented with 5% FBS. One lyophilized substrate solution vial is then reconstituted by adding 5 mL of substrate buffer solution, and is agitated gently until the solution is homogeneous. About 50 μL of mammalian cell lysis solution is added to 100 μL of cell suspension per well of a microplate, and the plate is shaken for about five minutes in an orbital shaker at ˜700 rpm. This procedure is used to lyse the cells and to stabilize the ATP. Next, 50 μL substrate solution is added to the wells and microplate is shaken for five minutes in an orbital shaker at ˜700 rpm. Finally, the luminescence is measured by a PerkinElmer TopCount® Microplate Scintillation Counter.
(§2) As shown in the following table, the CY-16-1 has potent anticancer activity in small cell lung cancer (SCLC) cell lines. Cisplatin, the first line treatment of SCLC, was used as a reference drug in this assay: […]

DMS 114 = experiment: In vitro anti-proliferation assay (ATPlite); assay type: cell-based; settings: SCLC cell line DMS 114, about 72 hours, read-out: anti-proliferative IC50
Procedure: as §1, §2

NCI-H69 = experiment: In vitro anti-proliferation assay (ATPlite); assay type: cell-based; settings: SCLC cell line NCI-H69, about 72 hours, read-out: anti-proliferative IC50
Procedure: as §1, §2

NCI-H82 = experiment: In vitro anti-proliferation assay (ATPlite); assay type: cell-based; settings: SCLC cell line NCI-H82, about 72 hours, read-out: anti-proliferative IC50
Procedure: as §1, §2

NCI-H446 = experiment: In vitro anti-proliferation assay (ATPlite); assay type: cell-based; settings: SCLC cell line NCI-H446, about 72 hours, read-out: anti-proliferative IC50
Procedure: as §1, §2

CDK7 = molecular target: T1, CDK7 (Homo sapiens, UniProt P50613); experiment: KINOMEscan CDK7 binding constant (Kd) determination; settings: KINOMEscan competition binding, 11-point 3-fold dilution
T1 construct: made in house; host or cells: E. coli BL21-derived host (T7 phage) or HEK-293
T1 sequence (P50613 whole entry): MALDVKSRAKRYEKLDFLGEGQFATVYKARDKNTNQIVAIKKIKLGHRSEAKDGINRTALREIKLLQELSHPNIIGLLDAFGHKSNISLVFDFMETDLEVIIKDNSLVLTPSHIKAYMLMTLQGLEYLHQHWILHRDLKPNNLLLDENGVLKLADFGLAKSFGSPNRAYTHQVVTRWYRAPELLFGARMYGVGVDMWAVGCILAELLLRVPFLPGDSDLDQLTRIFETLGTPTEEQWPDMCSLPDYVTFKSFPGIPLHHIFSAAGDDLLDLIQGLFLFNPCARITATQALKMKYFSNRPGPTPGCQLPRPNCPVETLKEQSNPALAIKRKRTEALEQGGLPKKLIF
Procedure: The assay is performed by combining three components: DNA-tagged kinase; immobilized ligand; and a test compound. The ability of the test compound to compete with the immobilized ligand is measured via quantitative PCR of the DNA tag.
The kinase-tagged T7 phage strains were prepared in an E. coli host derived from the BL21 strain. E. coli were grown to log-phase and infected with T7 phage and incubated with shaking at 32° C. until lysis. The lysates were centrifuged and filtered to remove cell debris. The remaining kinases were produced in HEK-293 cells and subsequently tagged with DNA for qPCR detection. Streptavidin-coated magnetic beads were treated with biotinylated small molecule ligands for 30 minutes at room temperature to generate affinity resins for kinase assays. The liganded beads were blocked with excess biotin and washed with blocking buffer (SeaBlock (Pierce), 1% BSA, 0.05% Tween 20, 1 mM DTT) to remove unbound ligand and to reduce non-specific binding. […] All reactions were performed in polystyrene 96-well plates in a final volume of 0.135 ml. […] The kinase concentration in the eluates was measured by qPCR. […]
Most Kd were determined using a compound top concentration=30,000 nM. […] Binding constants (Kds) were calculated with a standard dose-response curve using the Hill equation: Response=Background+(Signal−Background)/[1+(Kd^Hill slope/Dose^Hill Slope)]. […]

CDK7/cyclinH1/MNAT1 = CDK7/cyclinH1/MNAT1 (Homo sapiens, UniProt P50613); experiment: Inhibition of CDK-7 enzymatic activity (p33 ATP radiometric assay)
CDK7/cyclinH1/MNAT1, sequence (P50613 whole entry): as above
CDK7/cyclinH1/MNAT1, sequence (P51946 whole entry partner): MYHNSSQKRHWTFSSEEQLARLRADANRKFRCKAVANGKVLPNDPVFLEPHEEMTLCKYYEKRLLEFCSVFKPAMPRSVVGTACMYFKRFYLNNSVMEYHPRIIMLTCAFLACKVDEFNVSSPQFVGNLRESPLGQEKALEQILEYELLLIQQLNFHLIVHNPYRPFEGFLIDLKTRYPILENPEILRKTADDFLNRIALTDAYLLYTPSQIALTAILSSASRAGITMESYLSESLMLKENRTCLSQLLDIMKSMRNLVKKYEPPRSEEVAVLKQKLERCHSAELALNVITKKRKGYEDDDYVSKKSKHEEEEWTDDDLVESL
CDK7/cyclinH1/MNAT1, sequence (P51948 whole entry partner): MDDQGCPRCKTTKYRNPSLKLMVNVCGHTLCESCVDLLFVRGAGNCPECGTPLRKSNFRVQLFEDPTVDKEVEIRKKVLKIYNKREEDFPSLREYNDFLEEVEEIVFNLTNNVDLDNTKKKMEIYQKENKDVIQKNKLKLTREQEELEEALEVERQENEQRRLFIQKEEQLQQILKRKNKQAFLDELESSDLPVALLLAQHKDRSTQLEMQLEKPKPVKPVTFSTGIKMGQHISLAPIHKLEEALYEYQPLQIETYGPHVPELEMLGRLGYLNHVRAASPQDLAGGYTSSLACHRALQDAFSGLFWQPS
Procedure: Material: CDK7/cyclinH1/MNAT1 (Accession number for CDK7; NP 001790, for cyclinH1; NP 001230, for MNAT1; NP 002422.1) Recombinant Human Full-Length protein, Histidine-tagged CDK7 (MW=43.2 kDa), Histidine-tagged cyclin H1 (MW=42.6 kDa), Histidine-tagged MNAT1 (MW=40.5 kDa), were expressed in insect cells. […] Activity was determined with a final protein concentration at 3.33 μg/mL. Enzyme was stored at a concentration of 0.42 mg/ml in 50 rnM Tris (pH 7.5), 150 mM NaCl, 0.5 mM EDTA, 0.02% Triton X-100, 2 mM DTT, 50% Glycerol.
For CDK7 activity assay, p33 ATP tracers were incubated with purified recombinant specific combination of purified CDK kinases, cyclins and substrates to monitor the enzyme activity. In these assays, individual reactions were carried out in specific conditions describe below with reaction buffer: 20 mM HEPES (pH 7.5), 10 mM MgCl2, 1 mM EGTA, 0.02% Brij 35, 0.02 mg/ml BSA, 0.1 mM Na3VO4, 2 mM DTT. An equal volume of 25% TCA was added to stop the reaction and precipitate the labeled peptides. […] The amount of incorporated isotope was measured using a Perkin Elmer TopCount plate reader. […] IC50 was calculated using Prism software with sigmoidal dose-response curve fitting. […] Reaction was incubated for 2 hours at room temperature and conversion rate of ATP was measured to be 5.5%. […]

CDK7/CycH/MAT1 = CDK7/CycH/MAT1 (Homo sapiens, UniProt P50613); experiment: In vitro irreversible dialysis assay; assay type: biochemical; settings: 700 nM compound pre-incubated 2 h with 50 nM enzyme, dialyzed 24 h at RT
CDK7/CycH/MAT1, sequence (P50613 whole entry): as the sequence (P50613 whole entry) above
CDK7/CycH/MAT1, sequence (P51946 whole entry partner): as the sequence (P51946 whole entry partner) above
CDK7/CycH/MAT1, sequence (P51948 whole entry partner): as the sequence (P51948 whole entry partner) above
Procedure: 700 nM CY-16-1 compound was pre-incubated with 50 nM CDK7/CycH/MAT1 enzyme for 2 h in a buffer comprising: 100 mM HEPES pH7.5, 0.1% BSA, 5 mM MgCl2, 1 mM DTT, 0.01% Triton X-100 and dialyzed at RT against the same buffer for a total time of 24 h (3 changes of the dialysis buffer, nominal cumulative dialysis factor: 30,000). Control samples included: DMSO+50 nM CDK7 dialyzed in the identical manner Un-dialyzed samples with compound were assembled and incubated for 24 h at RT. Following dialysis, the CDK7 activity was measured in real-time format in the presence of 100 uM ATP and 1 uM substrate peptide. Initial velocity was determined in the samples.

## N.N.[Cl][Pt][Cl] [Cisplatin, reference compound]
NCI-H209
  IC50: 274 nM
DMS 114
  IC50: 5950 nM
NCI-H69
  IC50: 7000 nM and 7700 nM
NCI-H82
  IC50: 4510 nM
NCI-H446
  IC50: 7450 nM

## C=CC(=O)Nc1ccc(C(=O)Nc2cc3cc(c2)Nc2nccc(n2)-c2cccc(c2)OCC/C=C/CN(C)C3)cc1 [CY-16-1]
CDK7
  Kd: < 1 nM
CDK7/cyclinH1/MNAT1
  IC50: < 15 nM
CDK7/CycH/MAT1
  Reversibility of CDK7 inhibition after dialysis: irreversible inhibitor of CDK7
NCI-H209; Homo sapiens
  IC50: 30 nM
DMS 114; Homo sapiens
  IC50: 29 nM
NCI-H69; Homo sapiens, NCI-H69, 72 h
  IC50: 32 nM
NCI-H69
  IC50: 18 nM
NCI-H82; Homo sapiens
  IC50: 28 nM
NCI-H446; Homo sapiens
  IC50: 19 nM
